What is called IC50 is the concentration that gives 50% inhibition. Broadly, the IC90 is the concentration at which the effect reaches the 90% level.

The test deals with Plasmodium berghei. As to the kind of experiment: Luciferase/luciferin-expressing antifolate-resistant parasites were used to infect a culture of HepG2 cells that were pre-incubated with compounds. Infected hepatocytes emit light due to the luciferase reaction. Assay results are presented as the percent inhibition of light emission compared to control. […]. The format is functional. The settings on record: sporozoite; for IC90: read-out: LUCIFERASE INFECTION ASSAY - IC90.

`Oc1cc(C(F)(F)F)nc(-c2ccccn2)n1`: the IC90 stood at 5.54 µM. In addition, the IC50 (HEPG2TOX_HILL_SLOPE 1.09, HEPG2TOX_R_SQUARED 0.904, PBLUC_HILL_SLOPE 3.05, PBLUC_R_SQUARED 0.293, read-out: LUCIFERASE INFECTION ASSAY - IC50) is 8.2 µM.

In the case of `O=C(NC1CC1)c1ccc(-c2cnc3c(NCC4CC4)nccn23)cc1`, the IC90 was determined as 6.12 µM. Also, under “HEPG2TOX_HILL_SLOPE 1.1, HEPG2TOX_R_SQUARED 0.94, PBLUC_HILL_SLOPE 4.24, PBLUC_R_SQUARED 0.447, read-out: LUCIFERASE INFECTION ASSAY - IC50”, the IC50 is 3.65 µM.

In the case of `Oc1c(Cl)cc(Cl)cc1C1Nc2cc(Cl)c(C(F)(F)F)cc2N1` (centres undefined), the IC90 was determined as 0.127 µM. The IC50 (HEPG2TOX_HILL_SLOPE 1.05, HEPG2TOX_R_SQUARED 0.96, PBLUC_HILL_SLOPE 13.2, PBLUC_R_SQUARED 0.588, read-out: LUCIFERASE INFECTION ASSAY - IC50) is 0.108 µM.

Turning to `COc1cc(-c2cnc3cnc(-c4cccs4)cn23)cc(OC)c1OC`, the IC90 turned out to be 2.1 µM. For the same compound, the IC50 (HEPG2TOX_HILL_SLOPE 1.1, HEPG2TOX_R_SQUARED 0.918, PBLUC_HILL_SLOPE 2.83, PBLUC_R_SQUARED 0.515, read-out: LUCIFERASE INFECTION ASSAY - IC50) stood at 0.964 µM.

For `COc1ccc(-c2ccc(/C=N/Nc3ccc(F)cc3)s2)cc1`, the IC90 is 5.44 µM. Further, the concentration for half-maximal inhibition (IC50) (HEPG2TOX_HILL_SLOPE 1.1, HEPG2TOX_R_SQUARED 0.99, PBLUC_HILL_SLOPE 2.83, PBLUC_R_SQUARED 0.421, read-out: LUCIFERASE INFECTION ASSAY - IC50) amounted to 2.5 µM.

Turning to `Cn1c(-c2ccco2)nc2cnc(Nc3cccc(F)c3)cc21`, the IC90 was more than 10 µM. The IC50 (HEPG2TOX_HILL_SLOPE 1.1, HEPG2TOX_R_SQUARED 0.907, read-out: LUCIFERASE INFECTION ASSAY - IC50) was more than 10 µM.

On to `COc1ccc(CO/N=C/NC(=O)C(c2ccc(Cl)cc2)c2nc3ccccc3nc2C(F)(F)F)cc1` (centres undefined), for which the IC90 is more than 6.24 µM. For the same compound, where the note is “HEPG2TOX_HILL_SLOPE 1.06, HEPG2TOX_R_SQUARED 0.661, read-out: LUCIFERASE INFECTION ASSAY - IC50”, the IC50 was more than 6.24 µM.

As to `CCCn1nc(C(=O)NCC(c2ccc(OC)cc2)N2CCOCC2)c2ccccc2c1=O` (centres undefined), the IC90 is more than 10 µM. Where the note is “HEPG2TOX_HILL_SLOPE 1.06, HEPG2TOX_R_SQUARED 0.0699, read-out: LUCIFERASE INFECTION ASSAY - IC50”, the IC50 is more than 10 µM.

As to `O=C1NC2(CCOc3ccccc32)C(=O)N1Cc1cc2ccccc2nc1Cl` (centres undefined), the IC90 came out at 1.37 µM. Also, the IC50 (HEPG2TOX_HILL_SLOPE 1.06, HEPG2TOX_R_SQUARED 0.922, PBLUC_HILL_SLOPE 24.2, PBLUC_R_SQUARED 0.349, read-out: LUCIFERASE INFECTION ASSAY - IC50) is 1.25 µM.

In the case of `Clc1ccc(-c2csc3ncnc(NCc4ccc(N5CCOCC5)nc4)c23)cc1`, the 90% effect concentration (IC90) is more than 10 µM. Also, the half-inhibitory concentration (IC50) (HEPG2TOX_HILL_SLOPE 1.06, HEPG2TOX_R_SQUARED 0.974, PBLUC_HILL_SLOPE 2.24, PBLUC_R_SQUARED 0.328, read-out: LUCIFERASE INFECTION ASSAY - IC50) was 5.51 µM.

On to `CN(CC(=O)Nc1ccc(-c2nc3ccccc3[nH]2)cc1)S(=O)(=O)c1ccc(Cl)s1`, for which the concentration for an effect of 90% (IC90) was more than 10 µM. Moreover, the 50% inhibitory concentration (IC50) (HEPG2TOX_HILL_SLOPE 1.06, HEPG2TOX_R_SQUARED 0.764, PBLUC_HILL_SLOPE 1.55, PBLUC_R_SQUARED 0.165, read-out: LUCIFERASE INFECTION ASSAY - IC50) was more than 10 µM.

As for `CCc1cc(-c2n[nH]cc2-c2ccc3c(c2)OCCO3)c(O)cc1OC`, the IC90 was found to be 1.59 µM. Further, the IC50 (HEPG2TOX_HILL_SLOPE 1.05, HEPG2TOX_R_SQUARED 0.928, PBLUC_HILL_SLOPE 1.82, PBLUC_R_SQUARED 0.694, read-out: LUCIFERASE INFECTION ASSAY - IC50) was found to be 0.474 µM.

As for `CCCCN(Cc1nc(=O)c2ccccc2[nH]1)C(=O)c1cc2c(F)cccc2s1`, the IC90 is more than 10 µM. Besides, under “HEPG2TOX_HILL_SLOPE 1.1, HEPG2TOX_R_SQUARED 0.0883, read-out: LUCIFERASE INFECTION ASSAY - IC50”, the IC50 was more than 10 µM.

As to `O=C1NC2(CCc3ccccc32)C(=O)N1Cc1cc2ccccc2nc1Cl` (centres undefined), the IC90 is more than 10 µM. Moreover, the half-inhibitory concentration (IC50) (HEPG2TOX_HILL_SLOPE 1.06, HEPG2TOX_R_SQUARED 0.864, read-out: LUCIFERASE INFECTION ASSAY - IC50) is more than 10 µM.

In the case of `COc1cc(C)c(Nc2cc(-c3ccc(N(C)C)cc3)ncn2)cc1OC`, the IC90 stood at 0.48 µM. Further, for the setting “HEPG2TOX_HILL_SLOPE 1.1, HEPG2TOX_R_SQUARED 0.88, PBLUC_HILL_SLOPE 3.68, PBLUC_R_SQUARED 0.773, read-out: LUCIFERASE INFECTION ASSAY - IC50”, the IC50 came out at 0.264 µM.

With `COc1ccc(-c2cnc3ccc(Cc4ccccc4)nn23)cc1OC`, the IC90 came to 3.83 µM. In addition, the IC50 (HEPG2TOX_HILL_SLOPE 1.09, HEPG2TOX_R_SQUARED 0.956, PBLUC_HILL_SLOPE 11.4, PBLUC_R_SQUARED 0.574, read-out: LUCIFERASE INFECTION ASSAY - IC50) was 3.16 µM.

`CNC(=O)c1ccc(CN(C2CC2)S(=O)(=O)c2cc(C)ccc2C)cc1`: the IC90 came to 5.44 µM. Besides, the IC50 (HEPG2TOX_HILL_SLOPE 1.06, HEPG2TOX_R_SQUARED 0.677, PBLUC_HILL_SLOPE 1.71, PBLUC_R_SQUARED 0.782, read-out: LUCIFERASE INFECTION ASSAY - IC50) was 1.51 µM.

Consider `N#C/C(=N\Nc1ccc(Cl)cc1)S(=O)(=O)c1ccc(Cl)cc1`, for which the IC90 came to 3.93 µM. Besides, under “HEPG2TOX_HILL_SLOPE 1.06, HEPG2TOX_R_SQUARED 0.975, PBLUC_HILL_SLOPE 5.18, PBLUC_R_SQUARED 0.893, read-out: LUCIFERASE INFECTION ASSAY - IC50”, the IC50 amounted to 2.57 µM.

With `COc1cc(C(=O)NNC(=O)c2ccc(Br)cc2)ccc1OCc1c(C)noc1C`, the concentration for an effect of 90% (IC90) was 7.1 µM. Besides, for the setting “HEPG2TOX_HILL_SLOPE 1.09, HEPG2TOX_R_SQUARED 0.959, PBLUC_HILL_SLOPE 2.18, PBLUC_R_SQUARED 0.498, read-out: LUCIFERASE INFECTION ASSAY - IC50”, the IC50 is 2.59 µM.

Turning to `CC(C)(C)c1ccc(C(O)c2nc(C(=O)NC3CC3)cs2)cc1` (centres undefined), the IC90 is 1.29 µM. Moreover, the IC50 (HEPG2TOX_HILL_SLOPE 1.09, HEPG2TOX_R_SQUARED 0.894, PBLUC_HILL_SLOPE 10.5, PBLUC_R_SQUARED 0.569, read-out: LUCIFERASE INFECTION ASSAY - IC50) was 1.05 µM.

For `Cn1ccc2cc(-c3cn4c(-c5cccc(Cl)c5)cnc4cn3)ccc21`, the concentration for an effect of 90% (IC90) is 2.86 µM. The IC50 (HEPG2TOX_HILL_SLOPE 1.09, HEPG2TOX_R_SQUARED 0.945, PBLUC_HILL_SLOPE 1.73, PBLUC_R_SQUARED 0.845, read-out: LUCIFERASE INFECTION ASSAY - IC50) was 0.804 µM.

On to `O=C(Nc1ncc(Cc2ccc(Br)cc2)s1)c1ccc2n[nH]nc2c1`, for which the IC90 came to 1.27 µM. The 50% inhibitory concentration (IC50) (HEPG2TOX_HILL_SLOPE 1.09, HEPG2TOX_R_SQUARED 0.989, PBLUC_HILL_SLOPE 1.74, PBLUC_R_SQUARED 0.819, read-out: LUCIFERASE INFECTION ASSAY - IC50) is 0.359 µM.

As to `Cc1cc(NNC(=O)Nc2ccc(Cl)cc2)nc2c1c(C)nn2C`, the IC90 is more than 9.57 µM. Also, the IC50 (HEPG2TOX_HILL_SLOPE 1.06, HEPG2TOX_R_SQUARED 0.939, PBLUC_HILL_SLOPE 2, PBLUC_R_SQUARED 0.223, read-out: LUCIFERASE INFECTION ASSAY - IC50) is 4.05 µM.

For `CC(C)CCN1C(=O)N(C(C)C)C(=O)C12CCN(Cc1c[nH]c3ccccc13)CC2`, the IC90 is more than 8.04 µM. Also, the 50% inhibitory concentration (IC50) (HEPG2TOX_HILL_SLOPE 1.06, HEPG2TOX_R_SQUARED 0.491, PBLUC_HILL_SLOPE 3.87, PBLUC_R_SQUARED 0.243, read-out: LUCIFERASE INFECTION ASSAY - IC50) is more than 8.04 µM.

For the compound `COc1ccc(C(=O)/C(C#N)=N/Nc2cccc(Cl)c2Cl)cc1`, the IC90 turned out to be 9.32 µM. For the same compound, where the note is “HEPG2TOX_HILL_SLOPE 1.05, HEPG2TOX_R_SQUARED 0.901, PBLUC_HILL_SLOPE 1.18, PBLUC_R_SQUARED 0.493, read-out: LUCIFERASE INFECTION ASSAY - IC50”, the IC50 was determined as 1.44 µM.

`Clc1ccc2nc(-c3cnn(-c4ccccc4)c3)[nH]c2c1`: the IC90 was determined as 7.38 µM. For the same compound, the IC50 (HEPG2TOX_HILL_SLOPE 1.09, HEPG2TOX_R_SQUARED 0.847, PBLUC_HILL_SLOPE 23.0, 2.49, PBLUC_R_SQUARED 0.431, 0.566, read-out: LUCIFERASE INFECTION ASSAY - IC50) was 5.39 µM.

Regarding `COc1ccc2c(c1)[nH]c1c(N(C)CCc3ccc(OC)c(OC)c3)ncnc12`, the IC90 is more than 8.41 µM. Moreover, under “HEPG2TOX_HILL_SLOPE 1.05, HEPG2TOX_R_SQUARED 0.856, PBLUC_HILL_SLOPE 1.55, PBLUC_R_SQUARED 0.53, read-out: LUCIFERASE INFECTION ASSAY - IC50”, the IC50 was found to be 4.47 µM.

Source of the values: ChEMBL document CHEMBL4483862, “Open-source discovery of chemical leads for next-generation chemoprotective antimalarials” (2018).
